Assay results reported in the supplement of paper PMC8617591.

How the values were obtained:
[1] = tested on: Mycobacterium tuberculosis Erdman (autoluminescent); experiment: Einf, fitted maximum growth inhibition of three-drug combination (fraction); higher = stronger maximal inhibition
Description: (§1)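 DiaMOND equipotent three-drug combination dose responses (10 doses, 1.5- or 2-fold spacing, centred on IC90) against autoluminescent M. tuberculosis Erdman in 8 in vitro models. Read-out is OD600, or luminescence for the intracellular and dormancy models, normalised to untreated wells. Hill-fit Einf, AUC25 and GRinf are potency metrics; FIC50 and FIC90 are total Loewe fractional inhibitory concentrations as log2 (negative = synergy).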

[2] = tested on: Mycobacterium tuberculosis Erdman (autoluminescent); experiment: AUC25, normalised area under dose response up to IC25 (three-drug combination) (fraction (0-1)); higher = more potent at low dose
Description: as §1

[3] = tested on: Mycobacterium tuberculosis Erdman (autoluminescent); experiment: total FIC90 (Loewe) at 90% inhibition, three-drug combination (log2); higher = more antagonistic
Description: as §1

[4] = tested on: Mycobacterium tuberculosis Erdman (autoluminescent); experiment: GRinf, maximum normalised growth rate inhibition (three-drug combination) (unitless (-1 to 1)); higher = less effect (negative = killing)
Description: as §1

[5] = tested on: Mycobacterium tuberculosis Erdman (autoluminescent); experiment: total FIC50 (Loewe) at 50% inhibition, three-drug combination (log2); higher = more antagonistic
Description: as §1

COc1nc2ccc(Br)cc2cc1[C@@H](c1ccccc1)[C@@](O)(CCN(C)C)c1cccc2ccccc12 [bedaquiline] + CC[C@@H](CO)NCCN[C@@H](CC)CO [ethambutol] + CO[C@H]1/C=C/O[C@@]2(C)Oc3c(C)c(O)c4c(O)c(c(/C=N/N5CCN(C6CCCC6)CC5)c(O)c4c3C2=O)NC(=O)/C(C)=C\C=C\[C@H](C)[C@H](O)[C@@H](C)[C@@H](O)[C@@H](C)[C@H](OC(C)=O)[C@@H]1C [rifapentine]
Conditions | AUC25, [2] | Einf, [1] | GRinf, [4] | total FIC50, [5] | total FIC90, [3]
in vitro model: acidic pH 5.7, time point: constant (~7 days, model-specific) | 0.114 | 0.961 | -0.423 | -0.16 | –
in vitro model: acidic pH 5.7, time point: terminal (~4-5 doublings, model-specific) | 0.0469 | 0.98 | -0.179 | 0.232 | -0.455
in vitro model: intracellular J774, time point: constant = terminal | – | 0.947 | -0.165 | – | -1.85

Conditions | AUC25, [2] | Einf, [1] | GRinf, [4] | total FIC50, [5] | total FIC90, [3]
in vitro model: butyrate, time point: constant (~7 days, model-specific) | 0.0669 | 0.935 | -0.0718 | 0.486 | –
in vitro model: butyrate, time point: terminal (~4-5 doublings, model-specific) | 0.0551 | 0.972 | -0.0579 | 0.432 | -0.198
in vitro model: cholesterol 0.05 mM, time point: constant (~7 days, model-specific) | 0.0736 | 0.7 | -0.229 | 0.896 | –
in vitro model: cholesterol 0.05 mM, time point: terminal (~4-5 doublings, model-specific) | 0.0689 | 0.896 | -0.175 | 1 | –
in vitro model: cholesterol-high 0.2 mM, time point: constant (~7 days, model-specific) | 0.0263 | 0.996 | -0.736 | 1.12 | –
in vitro model: cholesterol-high 0.2 mM, time point: terminal (~4-5 doublings, model-specific) | 0.0449 | 0.998 | -0.697 | 1.03 | 1.09
in vitro model: dormancy (butyrate + nitrate, low O2), time point: constant (~7 days, model-specific) | 0.125 | 0.891 | 0.428 | 1.06 | –
in vitro model: dormancy (butyrate + nitrate, low O2), time point: terminal (~4-5 doublings, model-specific) | 0.105 | 0.982 | -0.0507 | 0.39 | 0.33
in vitro model: standard 7H9 glycerol, time point: constant = terminal | 0.0577 | 0.931 | 0.00717 | 0.213 | –
in vitro model: valerate, time point: constant (~7 days, model-specific) | 0.0547 | 0.887 | -0.0669 | 0.793 | –
in vitro model: valerate, time point: terminal (~4-5 doublings, model-specific) | 0.0403 | 0.948 | -0.0709 | 0.823 | -0.0548

COc1nc2ccc(Br)cc2cc1[C@@H](c1ccccc1)[C@@](O)(CCN(C)C)c1cccc2ccccc12 [bedaquiline] + COc1c(N2C[C@@H]3CCCN[C@@H]3C2)c(F)cc2c(=O)c(C(=O)O)cn(C3CC3)c12 [moxifloxacin] + NC(=O)c1cnccn1 [pyrazinamide]
Conditions | AUC25, [2] | Einf, [1] | GRinf, [4] | total FIC50, [5] | total FIC90, [3]
in vitro model: acidic pH 5.7, time point: constant (~7 days, model-specific) | 0.0871 | 0.847 | -0.43 | 0.0701 | –
in vitro model: acidic pH 5.7, time point: terminal (~4-5 doublings, model-specific) | 0.0844 | 0.984 | -0.325 | 0.276 | -0.165
in vitro model: intracellular J774, time point: constant = terminal | – | 0.982 | -0.385 | – | 0.89

Conditions | AUC25, [2] | Einf, [1] | GRinf, [4] | total FIC50, [5] | total FIC90, [3]
in vitro model: butyrate, time point: constant (~7 days, model-specific) | 0.108 | 0.952 | -0.798 | 0.562 | 1.12
in vitro model: butyrate, time point: terminal (~4-5 doublings, model-specific) | 0.0863 | 0.987 | -0.741 | 0.738 | 1.18
in vitro model: cholesterol 0.05 mM, time point: constant (~7 days, model-specific) | 0.113 | 0.762 | -0.387 | – | –
in vitro model: cholesterol 0.05 mM, time point: terminal (~4-5 doublings, model-specific) | 0.115 | 0.95 | -0.419 | 0.205 | 2.28
in vitro model: cholesterol-high 0.2 mM, time point: constant (~7 days, model-specific) | 0.0866 | 0.981 | -0.58 | 0.399 | –
in vitro model: cholesterol-high 0.2 mM, time point: terminal (~4-5 doublings, model-specific) | 0.0915 | 1 | -0.586 | 0.406 | 0.558
in vitro model: dormancy (butyrate + nitrate, low O2), time point: constant (~7 days, model-specific) | 0.0687 | 0.928 | 0.247 | -0.56 | -0.988
in vitro model: dormancy (butyrate + nitrate, low O2), time point: terminal (~4-5 doublings, model-specific) | 0.0596 | 0.987 | -0.0885 | 0.109 | -0.187
in vitro model: standard 7H9 glycerol, time point: constant = terminal | 0.0806 | 0.969 | -0.108 | – | –
in vitro model: valerate, time point: constant (~7 days, model-specific) | 0.102 | 0.916 | -0.131 | 0.831 | –
in vitro model: valerate, time point: terminal (~4-5 doublings, model-specific) | 0.06 | 0.949 | -0.0556 | 0.778 | 1.03

COc1nc2ccc(Br)cc2cc1[C@@H](c1ccccc1)[C@@](O)(CCN(C)C)c1cccc2ccccc12 [bedaquiline] + COc1c(N2C[C@@H]3CCCN[C@@H]3C2)c(F)cc2c(=O)c(C(=O)O)cn(C3CC3)c12 [moxifloxacin] + O=[N+]([O-])c1cn2c(n1)OC[C@@H](OCc1ccc(OC(F)(F)F)cc1)C2 [pretomanid]
Conditions | AUC25, [2] | Einf, [1] | GRinf, [4] | total FIC50, [5] | total FIC90, [3]
in vitro model: acidic pH 5.7, time point: constant (~7 days, model-specific) | 0.1 | 0.838 | -0.377 | 0.596 | –
in vitro model: acidic pH 5.7, time point: terminal (~4-5 doublings, model-specific) | 0.0692 | 0.971 | -0.329 | 0.946 | 0.743
in vitro model: intracellular J774, time point: constant = terminal | – | 0.972 | -0.42 | – | 0.518

Conditions | AUC25, [2] | Einf, [1] | GRinf, [4] | total FIC50, [5] | total FIC90, [3]
in vitro model: butyrate, time point: constant (~7 days, model-specific) | 0.11 | 0.974 | -0.202 | 0.96 | 1.4
in vitro model: butyrate, time point: terminal (~4-5 doublings, model-specific) | 0.0807 | 0.979 | -0.386 | 1.02 | 1.52
in vitro model: cholesterol 0.05 mM, time point: constant (~7 days, model-specific) | 0.102 | 0.689 | -0.187 | 0.771 | –
in vitro model: cholesterol 0.05 mM, time point: terminal (~4-5 doublings, model-specific) | 0.0953 | 0.946 | -0.21 | 0.672 | 0.565
in vitro model: cholesterol-high 0.2 mM, time point: constant (~7 days, model-specific) | 0.0866 | 0.945 | -0.309 | 0.743 | 1.24
in vitro model: cholesterol-high 0.2 mM, time point: terminal (~4-5 doublings, model-specific) | 0.082 | 1 | -0.571 | 0.598 | 0.93
in vitro model: dormancy (butyrate + nitrate, low O2), time point: constant (~7 days, model-specific) | 0.0412 | 0.905 | 0.272 | 0.0257 | -0.733
in vitro model: dormancy (butyrate + nitrate, low O2), time point: terminal (~4-5 doublings, model-specific) | 0.0577 | 0.995 | -0.1 | 0.157 | 0.118
in vitro model: standard 7H9 glycerol, time point: constant = terminal | 0.08 | 0.98 | -0.122 | -0.0856 | -0.137
in vitro model: valerate, time point: constant (~7 days, model-specific) | 0.123 | 0.932 | -0.393 | 0.261 | –
in vitro model: valerate, time point: terminal (~4-5 doublings, model-specific) | 0.0843 | 0.956 | -0.165 | 0.431 | 0.866
